Patent publication US20150265644A1, “THERAPEUTIC METHODS AND COMPOSITIONS FOR TREATING DIABETES UTILIZING DITERPENOID COMPOUNDS” (Orient Europharma Co., Ltd., priority 2014, published 2015)

Assays:
[1] = Plasma insulin level before and after treatment in mice; format: in vivo
Description: The 4-week-old male ICR mice were purchased from the Animal Center of the College of Medicine, National Taiwan University (Taipei, Taiwan) with delicate humane care. This animal study was conducted by following the University ethical guidelines and the ‘Guide for the Care and Use of Laboratory Animals’ published by the US National Institutes of Health (NIH publication no. 85-23, revised 1996). The animal experiments were approved by the Institutional Animal Care and Use Committee (IACUC) of the National Taiwan University (IACUC No. 20110073). Animals were housed in a room at the constant temperature, 22±1° C., with 12 hours light and dark cycles.
After three days of acclimatization, the mice had free access to a standard rodent chow (normal mice), a standard rodent chow after single 250 mgkg^−1 streptozotocin (STZ) intraperitoneal injection (TIDM mice), and a fat-rich chow diet and fructose-sweetened water (T2DM mice) for 4 weeks. The induction of Type 1 DM was assessed and confirmed when the mice had plasma glucose levels ≧350 mgdL^−1, accompanied with polyuria, hyperphagia and decreased body weight. The induction Type 2 DM in the mice was assessed by measuring fasting plasma glucose levels and confirmed when plasma glucose level was ≧150 mgdL^−1 after the 4-week induction. The animals were assigned randomly into three groups, with seven animals in each group. In group I, the mice were treated with vehicle, 2% DMSO in normal saline, as the negative control. In group II, the mice were intraperitoneally treated with borapetoside A (0.1-10 mgkg^−1). In […], the mice received intraperitoneally metformin (300 mgkg^−1; Sigma Chemical Co., St. Louis, Mo., U.S.A.) or insulin (0.5 IUkg^−1; Insulin Actrapid® HM; Novo Nordisk, Denmark). In the acute study, mice under anesthesia received a single intraperitoneal administration of borapetoside A, negative control, or positive control. In the subacute study, mice received intraperitoneal administrations of borapetoside A, vehicle, or insulin twice a day for seven days.
Blood samples were collected from the orbital vascular plexus of the mice under anesthesia. Blood samples were then centrifuged at 13000 rpm for 5 min, and the plasma samples were collected and kept on ice prior to the assay. The plasma glucose concentration was measured by Glucose Kit Reagent (Biosystems S.A., Barcelona, Spain) following the manufacturer's instructions, and the insulin levels were estimated using mouse insulin ELISA kit (Mercodia AB, Uppsala, Sweden).

phosphor-AS160 (Thr^642) = assay: Western blot of liver, phospho-AS160; format: in vivo; conditions: mice with type 1 DM, 10 mgkg^−1 i.p. twice a day for 7 days
Description: After three days of acclimatization, the mice had free access to a standard rodent chow (normal mice), a standard rodent chow after single 250 mgkg^−1 streptozotocin (STZ) intraperitoneal injection (TIDM mice), and a fat-rich chow diet and fructose-sweetened water (T2DM mice) for 4 weeks. The induction of Type 1 DM was assessed and confirmed when the mice had plasma glucose levels ≧350 mgdL^−1, accompanied with polyuria, hyperphagia and decreased body weight. The induction Type 2 DM in the mice was assessed by measuring fasting plasma glucose levels and confirmed when plasma glucose level was ≧150 mgdL^−1 after the 4-week induction. […]
Western blot analysis was carried out by known methods with a slight modification. […] After centrifuging the homogenates at 10,000 g for 30 minutes, the protein concentrations were determined by using a BCA Protein Assay Kit (Pierce Biotechnology, Rockford, Ill.). […] The membranes were analysed by using the antibodies against phospho-insulin receptor β (IRβ) (Tyr^1345), phospho-Akt (Ser^473), phosphor-AS160 (Thr^642), AS160 (Cell Signaling Technology, Beverly, Mass.), IRβ, Akt, β-Actin (Santa Cruz Biotechnology, Santa Cruz, Calif.), GLUT2 (Abcam, Cambridge, UK), and PEPCK (a gift from Professor D K Granner), respectively. […] The intensity of each band was quantified with ImageQuant.

soleus muscle = assay: Glycogen content in soleus muscle in vivo; design: species or system mice; conditions: 10 mgkg^−1 i.p., 60 minutes
Description: The mice were injected with borapetoside A (10 mgkg^−1, interperitoneal) for 60 minutes or insulin (0.5 IUkg^−1, interperitoneal) for 30 minutes. After the treatment, the anesthetic mice were sacrificed by cervical dislocation to collect the soleus muscle and liver. About 40 mg of each sample was dissolved in 1 mol/L KOH at 75° C. for 30 min. The dissolved homogenate was neutralized by glacial acetic acid and then incubated overnight in acetate buffer (0.3 mol/L sodium acetate, pH 4.8) containing amyloglucosidase (Sigma, St. Louis, Mo.). The mixture was then neutralized with 1 mol/L NaOH to stop the reaction. The glycogen contents in the tissue samples were determined as μg of glucose per mg of tissue (wet weight).

For `C[C@@]12C[C@@H](c3ccoc3)OC(=O)[C@@H]1C[C@@H]1OC(=O)[C@@]3(O)[C@@H](O[C@@H]4O[C@H](CO)[C@@H](O)[C@H](O)[C@H]4O)CC[C@@H]2[C@@]13C` [borapetoside A], the Plasma insulin ([1]; T1DM mice, 0.1 mg kg^−1, after-treatment) was 22.7 ± 0.2 pmol/L, the Plasma insulin ([1]; T1DM mice, 0.1 mg kg^−1, before-treatment) was 22.9 ± 0.1 pmol/L and the Plasma insulin ([1]; T1DM mice, 0.3 mg kg^−1, after-treatment) was 22.7 ± 0.3 pmol/L. The Plasma insulin ([1]; T1DM mice, 0.3 mg kg^−1, before-treatment) was 22.9 ± 0.1 pmol/L, the Plasma insulin ([1]; T1DM mice, 1 mg kg^−1, after-treatment) was 23.0 ± 0.2 pmol/L and the Plasma insulin ([1]; T1DM mice, 1 mg kg^−1, before-treatment) was 23.1 ± 0.2 pmol/L. For the same molecule, the Plasma insulin ([1]; T1DM mice, 3 mg kg^−1, after-treatment) was 23.0 ± 0.0 pmol/L, the Plasma insulin ([1]; T1DM mice, 3 mg kg^−1, before-treatment) was 23.1 ± 0.2 pmol/L and the Plasma insulin ([1]; T1DM mice, 10 mg kg^−1, after-treatment) was 23.0 ± 0.1 pmol/L. The Plasma insulin ([1]; T1DM mice, 10 mg kg^−1, before-treatment) was 23.1 ± 0.1 pmol/L, the Plasma insulin ([1]; T2DM mice, 0.1 mg kg^−1, after-treatment) was 134.5 ± 9.3 pmol/L and the Plasma insulin ([1]; T2DM mice, 0.1 mg kg^−1, before-treatment) was 140.5 ± 4.1 pmol/L. It also gave a Plasma insulin ([1]; T2DM mice, 0.3 mg kg^−1, after-treatment) of 149.0 ± 9.5 pmol/L, a Plasma insulin ([1]; T2DM mice, 0.3 mg kg^−1, before-treatment) of 133.0 ± 4.2 pmol/L and a Plasma insulin ([1]; T2DM mice, 1 mg kg^−1, after-treatment) of 123.7 ± 9.6 pmol/L. For the same molecule, the Plasma insulin ([1]; T2DM mice, 1 mg kg^−1, before-treatment) was 126.8 ± 5.7 pmol/L, the Plasma insulin ([1]; T2DM mice, 3 mg kg^−1, after-treatment) was 184.3 ± 14.6 pmol/L and the Plasma insulin ([1]; T2DM mice, 3 mg kg^−1, before-treatment) was 138.3 ± 3.6 pmol/L. The Plasma insulin ([1]; T2DM mice, 10 mg kg^−1, after-treatment) was 205.3 ± 22.2 pmol/L, the Plasma insulin ([1]; T2DM mice, 10 mg kg^−1, before-treatment) was 134.9 ± 3.5 pmol/L and the Plasma insulin ([1]; normal mice, 0.1 mg kg^−1, after-treatment) was 68.3 ± 4.4 pmol/L. The Plasma insulin ([1]; normal mice, 0.1 mg kg^−1, before-treatment) was 61.0 ± 4.6 pmol/L, the Plasma insulin ([1]; normal mice, 0.3 mg kg^−1, after-treatment) was 129.4 ± 22.0 pmol/L and the Plasma insulin ([1]; normal mice, 0.3 mg kg^−1, before-treatment) was 63.4 ± 3.9 pmol/L. It also gave a Plasma insulin ([1]; normal mice, 1 mg kg^−1, after-treatment) of 118.8 ± 10.1 pmol/L, a Plasma insulin ([1]; normal mice, 1 mg kg^−1, before-treatment) of 66.1 ± 5.4 pmol/L and a Plasma insulin ([1]; normal mice, 3 mg kg^−1, after-treatment) of 121.2 ± 14.2 pmol/L. The Plasma insulin ([1]; normal mice, 3 mg kg^−1, before-treatment) was 64.4 ± 3.6 pmol/L, the Plasma insulin ([1]; normal mice, 10 mg kg^−1, after-treatment) was 108.2 ± 2.9 pmol/L and the Plasma insulin ([1]; normal mice, 10 mg kg^−1, before-treatment) was 68.9 ± 1.3 pmol/L. The “phosphorylated AS160 in liver” value (phosphor-AS160 (Thr^642)) was “increased”, the “glycogen content in soleus muscle, % of vehicle control” value (“glycogen content in soleus muscle, %” for short) (soleus muscle; mice with type 1 DM) was 155.6±8.6% and the “glycogen content in soleus muscle, %” value (soleus muscle; mice with type 2 DM) was 171.8±12.0%. The “glycogen content in soleus muscle, %” value (soleus muscle; normal mice) was 116.5±4.2%.
